The values below come from ChEMBL document CHEMBL2384963, “Diterpenoids from the twigs and leaves of Fokienia hodginsii” (J Nat Prod, 2013).

Holding throughout (format): functional, cell-based
The test system of experiment [1] is A549. The experiment in a line: Cytotoxicity against human A549 cells after 48 hrs by MTT assay. Particulars: A549, 48 h.
The subject of experiment [2] is HL-60. The experiment in a line: Cytotoxicity against human HL60 cells after 48 hrs by MTT assay. Particulars: HL-60, 48 h.
The test system of experiment [3] is MCF7. Description: Cytotoxicity against human MCF7 cells after 48 hrs by MTT assay. Particulars: MCF7, 48 h.
The test system of experiment [4] is SW480. The experiment in a line: Cytotoxicity against human SW480 cells after 48 hrs by MTT assay. Particulars: SW480, 48 h.
Experiment [5] relates to SMMC-7721. The experiment in a line: Cytotoxicity against human SMMC7721 cells after 48 hrs by MTT assay. The following applies: SMMC-7721, 48 h.

As for `C=CC(=C)CC[C@@H]1[C@@]2(C)CCC[C@](C)(COC(=O)/C=C/c3ccc(O)cc3)[C@@H]2CC[C@@]1(C)O`, the IC50 turned out to be 20.4 µM in experiment [1]; 11.8 µM in experiment [2]; 16.6 µM in experiment [3]; 19.3 µM in experiment [4]; 15.5 µM in experiment [5].
In the case of `C=C1CC[C@@H]2[C@](C)(CCC[C@@]2(C)C(=O)O)[C@H]1CC/C(C)=C/COC(C)=O`, the IC50 in experiment [1], in experiment [2], in experiment [3], in experiment [4] and in experiment [5] was > 40 µM in each case.
Take `C=C[C@@](C)(O)CC[C@H]1C(=C)CC[C@@H]2[C@]1(C)CCC[C@]2(C)C(=O)O`: the IC50 in experiment [1], in experiment [2], in experiment [3], in experiment [4] and in experiment [5] was > 40 µM in each case.
Take `C=CC(=C)CC[C@@H]1[C@@]2(C)CCC[C@](C)(COC(=O)/C=C/c3ccc(O)c(OC)c3)[C@@H]2CC[C@@]1(C)O`: the IC50 was 16.8 µM in experiment [1]; 14.3 µM in experiment [2]; 13.5 µM in experiment [3]; 16.9 µM in experiment [4]; 14.1 µM in experiment [5].
For the compound `C=CC(=C)CC[C@@H]1[C@@]2(C)CCC[C@](C)(COC(=O)/C=C\c3ccc(O)cc3)[C@@H]2CC[C@@]1(C)O`, the IC50 in experiment [1] came out at 17.1 µM; in experiment [2], 14.1 µM; in experiment [3] it was 15.1 µM; in experiment [4], 13.6 µM; in experiment [5], 16.2 µM.
Regarding `CC(C)c1cc2c(cc1O)[C@@]1(CO)CCCC(C)(C)[C@H]1CC2`, the IC50 in experiment [1] stood at 20.7 µM; in experiment [2] it was 15.5 µM; in experiment [3] it was 15 µM; in experiment [4] it was 15.1 µM; in experiment [5], 15.2 µM.
With `C=C[C@]1(C)C=C2CC[C@H]3[C@](C)(CO)CCC[C@]3(C)[C@H]2[C@H](O)C1`, the IC50 in experiment [1], in experiment [2], in experiment [3], in experiment [4] and in experiment [5] was > 40 µM in each case.
In the case of `C=C[C@]1(C)C=C2CC[C@H]3[C@](C)(COC(C)=O)CCC[C@]3(C)[C@H]2[C@H](O)C1`, the IC50 in experiment [1], in experiment [2], in experiment [3], in experiment [4] and in experiment [5] was > 40 µM each time.
As to `C=C[C@]1(C)C=C2CC[C@H]3C(C)(C)[C@@H](O)CC[C@]3(C)[C@H]2[C@H](O)C1`, the IC50 in experiment [1], in experiment [2], in experiment [3], in experiment [4] and in experiment [5] was > 40 µM each time.
`C=C[C@]1(C)C=C2CC[C@H]3C(C)(C)[C@@H](O)CC[C@]3(C)[C@H]2[C@H](OC(C)=O)C1`: the IC50 in experiment [1], in experiment [2], in experiment [3], in experiment [4] and in experiment [5] was > 40 µM throughout.
Regarding `C=C[C@@]1(C)C=C[C@H]2C(=C1)[C@H](O)C[C@H]1[C@](C)(CO)CCC[C@]21C`, the IC50 in experiment [1], in experiment [2], in experiment [3], in experiment [4] and in experiment [5] was > 40 µM throughout.
For `C=CC(=C)[C@H](O)C[C@H]1C(=C)CC[C@@H]2[C@]1(C)CCC[C@]2(C)C(=O)O`, the IC50 in experiment [1], in experiment [2], in experiment [3], in experiment [4] and in experiment [5] was > 40 µM each time.
For `C=C[C@@]1(C)O[C@H]1C[C@H]1C(=C)CC[C@@H]2[C@]1(C)CCC[C@]2(C)C(=O)O`, the IC50 in experiment [1], in experiment [2], in experiment [3], in experiment [4] and in experiment [5] was > 40 µM throughout.
For `C=C[C@]1(C)O[C@H]1C[C@H]1C(=C)CC[C@@H]2[C@]1(C)CCC[C@]2(C)C(=O)O`, the IC50 in experiment [1], in experiment [2], in experiment [3], in experiment [4] and in experiment [5] was > 40 µM throughout.
In the case of `C=CC(=C)CC[C@@H]1[C@@]2(C)CCC[C@](C)(COC(=O)/C=C\c3ccc(O)c(OC)c3)[C@@H]2CC[C@@]1(C)O`, the IC50 in experiment [1] is 17.3 µM; in experiment [2] it was 9.1 µM; in experiment [3], 15.4 µM; in experiment [4], 17.6 µM; in experiment [5], 7.5 µM.
For `CC(C)C1=C[C@]2(O)CC[C@H]3C(C)(C)CCC[C@]3(O)CC2=CC1=O`, the IC50 in experiment [1], in experiment [2], in experiment [3], in experiment [4] and in experiment [5] was > 40 µM throughout.
On to `C=C[C@]1(C)C=C2CC[C@H]3C(C)(C)CCC[C@]3(C)[C@H]2[C@H](O)C1`, for which the IC50 in experiment [1], in experiment [2], in experiment [3], in experiment [4] and in experiment [5] was > 40 µM throughout.
Consider `C=CC(=C)[C@@H](O)C[C@H]1C(=C)CC[C@@H]2[C@]1(C)CCC[C@]2(C)C(=O)O`, for which the IC50 in experiment [1], in experiment [2], in experiment [3], in experiment [4] and in experiment [5] was > 40 µM in each case.
Consider `C=C/C(C)=C/C[C@H]1C(=C)CC[C@@H]2[C@]1(C)CCC[C@]2(C)C=O`, for which the IC50 in experiment [1], in experiment [2], in experiment [3], in experiment [4] and in experiment [5] was > 40 µM throughout.
In the case of `C=C1CC[C@@H]2[C@](C)(CCC[C@]2(C)C(=O)O)[C@H]1C/C=C(\C)C=O`, the IC50 in experiment [1], in experiment [2], in experiment [3], in experiment [4] and in experiment [5] was > 40 µM each time.
Consider `C=C/C(C)=C/C[C@H]1C(=C)CC[C@@H]2[C@]1(C)CCC[C@]2(C)C(=O)O`, for which the IC50 in experiment [1], in experiment [2], in experiment [3], in experiment [4] and in experiment [5] was > 40 µM throughout.
Take `CC(C)c1cc2c(cc1O)[C@@]1(C)CCCC(C)(C)[C@@H]1CC2` [FERRUGINOL]: the IC50 in experiment [1], in experiment [2], in experiment [3], in experiment [4] and in experiment [5] was > 40 µM in each case.
Take `C=C1CC[C@@H]2[C@](C)(CCC[C@]2(C)C(=O)O)[C@H]1CC/C(C)=C/CO` [ISOCUPRESSIC ACID]: the IC50 in experiment [1], in experiment [2], in experiment [3], in experiment [4] and in experiment [5] was > 40 µM each time.
For the compound `C=C1CC[C@@H]2[C@](C)(CCC[C@]2(C)C(=O)O)[C@H]1CCC1=CCOC1=O` [PINUSOLIDIC ACID], the IC50 in experiment [1], in experiment [2], in experiment [3], in experiment [4] and in experiment [5] was > 40 µM in each case.
Take `CC(C)c1cc2c(cc1O)[C@@]1(C=O)CCCC(C)(C)[C@@H]1CC2` [PISIFERAL]: the IC50 in experiment [1] amounted to 21 µM; in experiment [2], 14.3 µM; in experiment [3] it was 15.6 µM; in experiment [4], 14.4 µM; in experiment [5] it was 19.7 µM.
Take `CC(C)c1cc2c(cc1O)[C@@]1(CO)CCCC(C)(C)[C@@H]1CC2` [PISIFEROL]: the IC50 in experiment [1], in experiment [2], in experiment [3], in experiment [4] and in experiment [5] was > 40 µM each time.
On to `C=C[C@]1(C)C=C2CC[C@H]3[C@](C)(CO)[C@@H](O)CC[C@]3(C)[C@H]2CC1` [SANDARACOPIMARADIENEDIOL], for which the half-maximal inhibitory concentration (IC50) in experiment [1], in experiment [2], in experiment [3], in experiment [4] and in experiment [5] was > 40 µM each time.
Consider `C=C[C@]1(C)C=C2CC[C@@H]3[C@](C)(CCC[C@@]3(C)C(=O)O)[C@H]2CC1` [SANDARACOPIMARIC ACID], for which the IC50 in experiment [1], in experiment [2], in experiment [3], in experiment [4] and in experiment [5] was > 40 µM in each case.
